Measured values published in PubChem BioAssay AID1963847 (Molecular Pharmacology Branch, DTP, NCI, 2024).
pIC50: −log10 of the molar value.

System: 415267-285-R-J2-PDC complex spheroid viability
Test: Anticancer human tumor 415267-285-R-J2-PDC patient-derived breast carcinoma cell line growth inhibition [POLQ]
Details: for pIC50: curve of first compound; for viability, T/C: stronger effect = lower value
How it was run: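 Complex spheroid viability model combining PDC tumour cells with endothelial (HUVEC) and MSC stromal cells. Novobiocin, ART-558 or RP6685 were tested singly and in combination with standard and investigational anticancer drugs. Each was titrated in half-log steps from near clinical Cmax, or from 10 microM where Cmax was unknown.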

[1] = second compound 0.0316 µM, first compound 0.0316 µM
[2] = second compound 0.0316 µM, first compound 0.1 µM
[3] = second compound 0.1 µM, first compound 0.0316 µM
[4] = second compound 0.1 µM, first compound 0.1 µM
[5] = second compound 0.316 µM, first compound 0.0316 µM
[6] = second compound 0.316 µM, first compound 0.1 µM
[7] = second compound 1 µM, first compound 0.0316 µM
[8] = second compound 1 µM, first compound 0.1 µM
[9] = second compound 3.16 µM, first compound 0.0316 µM
[10] = second compound 3.16 µM, first compound 0.1 µM
[11] = second compound 10 µM, first compound 0.0316 µM
[12] = second compound 10 µM, first compound 0.1 µM
[13] = second compound 0.0316 µM, first compound 0.316 µM
[14] = second compound 0.0316 µM, first compound 1 µM
[15] = second compound 0.0316 µM, first compound 3.16 µM
[16] = second compound 0.0316 µM, first compound 10 µM
[17] = second compound 0.1 µM, first compound 0.316 µM
[18] = second compound 0.1 µM, first compound 1 µM
[19] = second compound 0.1 µM, first compound 3.16 µM
[20] = second compound 0.1 µM, first compound 10 µM
[21] = second compound 0.316 µM, first compound 0.316 µM
[22] = second compound 0.316 µM, first compound 1 µM
[23] = second compound 0.316 µM, first compound 3.16 µM
[24] = second compound 0.316 µM, first compound 10 µM
[25] = second compound 1 µM, first compound 0.316 µM
[26] = second compound 1 µM, first compound 1 µM
[27] = second compound 1 µM, first compound 3.16 µM
[28] = second compound 1 µM, first compound 10 µM
[29] = second compound 3.16 µM, first compound 0.316 µM
[30] = second compound 3.16 µM, first compound 1 µM
[31] = second compound 3.16 µM, first compound 3.16 µM
[32] = second compound 3.16 µM, first compound 10 µM
[33] = second compound 10 µM, first compound 0.316 µM
[34] = second compound 10 µM, first compound 1 µM
[35] = second compound 10 µM, first compound 3.16 µM
[36] = second compound 10 µM, first compound 10 µM
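Further: spheroids exposed to compounds for one week before readout.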
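Wherever viability, T/C is given: luminescence used as stand-in measure of viable cells; 100% = DMSO vehicle control viability.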

With `Cn1ncnc1[C@H]1c2n[nH]c(=O)c3cc(F)cc(c23)N[C@@H]1c1ccc(F)cc1` + COC1C(OC(N)=O)C(O)C(Oc2ccc3c(O)c(NC(=O)c4ccc(O)c(CC=C(C)C)c4)c(=O)oc3c2C)OC1(C)C as the molecule, how does the pIC50 (second compound 0.0316 µM) read?
Its pIC50 is < 7.00.

What about the pIC50 (second compound 0.1 µM) of the same molecule?
Its pIC50 is < 7.00.

And the pIC50 (second compound 0.316 µM)?
Its pIC50 is < 7.00.

And the pIC50 (second compound 1 µM)?
The pIC50 was < 7.00.

And the pIC50 (second compound 3.16 µM)?
Its pIC50 is < 7.00.

What about the pIC50 (second compound 10 µM) of the same molecule?
The pIC50 was < 7.00.

And the viability, T/C (second compound 0.0316 µM, first compound 0.000316 µM)?
The viability, T/C was 102%.

And the viability, T/C (second compound 0.0316 µM, first compound 0.001 µM)?
The viability, T/C was 98.6%.

What about the viability, T/C (second compound 0.0316 µM, first compound 0.00316 µM) of the same molecule?
The viability, T/C was 113%.

What about the viability, T/C (second compound 0.0316 µM, first compound 0.01 µM) of the same molecule?
Its viability, T/C is 101%.

And the viability, T/C [1]?
Its viability, T/C is 107%.

What about the viability, T/C [2] of the same molecule?
The viability, T/C was 93%.

What about the viability, T/C (second compound 0.1 µM, first compound 0.000316 µM) of the same molecule?
Its viability, T/C is 105%.

What about the viability, T/C (second compound 0.1 µM, first compound 0.001 µM) of the same molecule?
The viability, T/C was 99.3%.

And the viability, T/C (second compound 0.1 µM, first compound 0.00316 µM)?
The viability, T/C was 101%.

And the viability, T/C (second compound 0.1 µM, first compound 0.01 µM)?
The viability, T/C was 103%.

What about the viability, T/C [3] of the same molecule?
Its viability, T/C is 97.8%.

What about the viability, T/C [4] of the same molecule?
The viability, T/C was 106%.

What about the viability, T/C (second compound 0.316 µM, first compound 0.000316 µM) of the same molecule?
Its viability, T/C is 112%.

What about the viability, T/C (second compound 0.316 µM, first compound 0.001 µM) of the same molecule?
The viability, T/C was 99.6%.

What about the viability, T/C (second compound 0.316 µM, first compound 0.00316 µM) of the same molecule?
Its viability, T/C is 94.2%.

What about the viability, T/C (second compound 0.316 µM, first compound 0.01 µM) of the same molecule?
The viability, T/C was 106%.

And the viability, T/C [5]?
The viability, T/C was 107%.

What about the viability, T/C [6] of the same molecule?
Its viability, T/C is 104%.

What about the viability, T/C (second compound 1 µM, first compound 0.000316 µM) of the same molecule?
Its viability, T/C is 97.6%.

And the viability, T/C (second compound 1 µM, first compound 0.001 µM)?
The viability, T/C was 93.3%.

And the viability, T/C (second compound 1 µM, first compound 0.00316 µM)?
Its viability, T/C is 94.8%.

And the viability, T/C (second compound 1 µM, first compound 0.01 µM)?
Its viability, T/C is 97.9%.

And the viability, T/C [7]?
Its viability, T/C is 109%.

And the viability, T/C [8]?
Its viability, T/C is 105%.

And the viability, T/C (second compound 3.16 µM, first compound 0.000316 µM)?
The viability, T/C was 89.6%.

What about the viability, T/C (second compound 3.16 µM, first compound 0.001 µM) of the same molecule?
Its viability, T/C is 92.9%.

What about the viability, T/C (second compound 3.16 µM, first compound 0.00316 µM) of the same molecule?
Its viability, T/C is 95.4%.

What about the viability, T/C (second compound 3.16 µM, first compound 0.01 µM) of the same molecule?
Its viability, T/C is 105%.

What about the viability, T/C [9] of the same molecule?
Its viability, T/C is 109%.

And the viability, T/C [10]?
Its viability, T/C is 103%.

And the viability, T/C (second compound 10 µM, first compound 0.000316 µM)?
The viability, T/C was 105%.

And the viability, T/C (second compound 10 µM, first compound 0.001 µM)?
The viability, T/C was 101%.

What about the viability, T/C (second compound 10 µM, first compound 0.00316 µM) of the same molecule?
The viability, T/C was 101%.

And the viability, T/C (second compound 10 µM, first compound 0.01 µM)?
The viability, T/C was 96.3%.

And the viability, T/C [11]?
Its viability, T/C is 102%.

What about the viability, T/C [12] of the same molecule?
The viability, T/C was 96.1%.

What does the source list for `O=C(c1cc(Cc2n[nH]c(=O)c3ccccc23)ccc1F)N1CCN(C(=O)C2CC2)CC1` + Cc1cccc(N(C)C(=O)C2C(O)CCN2c2nc(C)cc(C(F)(F)F)c2C#N)c1?
pIC50 (second compound 0.0316 µM): < 5.00; pIC50 (second compound 0.1 µM): < 5.00; pIC50 (second compound 0.316 µM): < 5.00; pIC50 (second compound 1 µM): < 5.00; pIC50 (second compound 3.16 µM): < 5.00; pIC50 (second compound 10 µM): < 5.00; viability, T/C [1]: 87.6%; viability, T/C [2]: 101%; viability, T/C [13]: 102%; viability, T/C [14]: 99.7%; viability, T/C [15]: 103%; viability, T/C [16]: 82.9%; viability, T/C [3]: 94%; viability, T/C [4]: 96.2%; viability, T/C [17]: 96.5%; viability, T/C [18]: 106%; viability, T/C [19]: 91.2%; viability, T/C [20]: 78.3%; viability, T/C [5]: 95.3%; viability, T/C [6]: 98.3%; viability, T/C [21]: 99.4%; viability, T/C [22]: 111%; viability, T/C [23]: 95.8%; viability, T/C [24]: 86.6%; viability, T/C [7]: 104%; viability, T/C [8]: 95.1%; viability, T/C [25]: 95.8%; viability, T/C [26]: 98.2%; viability, T/C [27]: 92.9%; viability, T/C [28]: 76.8%; viability, T/C [9]: 99.3%; viability, T/C [10]: 98.6%; viability, T/C [29]: 88.5%; viability, T/C [30]: 95.9%; viability, T/C [31]: 87.7%; viability, T/C [32]: 72.9%; viability, T/C [11]: 100%; viability, T/C [12]: 85.1%; viability, T/C [33]: 87.7%; viability, T/C [34]: 98%; viability, T/C [35]: 90%; viability, T/C [36]: 68%

With `O=C(Nc1ccc(O)c(NS(=O)(=O)c2ccc(F)cc2)c1)c1ccc(-c2ccccc2)cc1` + COC1C(OC(N)=O)C(O)C(Oc2ccc3c(O)c(NC(=O)c4ccc(O)c(CC=C(C)C)c4)c(=O)oc3c2C)OC1(C)C as the molecule, how does the pIC50 (second compound 0.0316 µM) read?
The pIC50 was 5.07.

And the pIC50 (second compound 0.1 µM)?
Its pIC50 is 5.05.

What about the pIC50 (second compound 0.316 µM) of the same molecule?
Its pIC50 is 5.06.

What about the pIC50 (second compound 1 µM) of the same molecule?
The pIC50 was 5.07.

And the pIC50 (second compound 3.16 µM)?
Its pIC50 is 5.09.

What about the pIC50 (second compound 10 µM) of the same molecule?
Its pIC50 is < 5.00.

What about the viability, T/C [1] of the same molecule?
The viability, T/C was 97.7%.

What about the viability, T/C [2] of the same molecule?
The viability, T/C was 93%.

And the viability, T/C [13]?
The viability, T/C was 94.8%.

What about the viability, T/C [14] of the same molecule?
Its viability, T/C is 95.8%.

And the viability, T/C [15]?
The viability, T/C was 93.6%.

What about the viability, T/C [16] of the same molecule?
Its viability, T/C is 42.9%.

What about the viability, T/C [3] of the same molecule?
Its viability, T/C is 95.8%.

And the viability, T/C [4]?
The viability, T/C was 101%.

And the viability, T/C [17]?
The viability, T/C was 87.6%.

What about the viability, T/C [18] of the same molecule?
Its viability, T/C is 114%.

And the viability, T/C [19]?
The viability, T/C was 94.6%.

And the viability, T/C [20]?
The viability, T/C was 44.3%.

And the viability, T/C [5]?
Its viability, T/C is 110%.

What about the viability, T/C [6] of the same molecule?
Its viability, T/C is 99.2%.

What about the viability, T/C [21] of the same molecule?
The viability, T/C was 98.9%.

And the viability, T/C [22]?
Its viability, T/C is 117%.

And the viability, T/C [23]?
The viability, T/C was 94.3%.

What about the viability, T/C [24] of the same molecule?
The viability, T/C was 44.4%.

What about the viability, T/C [7] of the same molecule?
The viability, T/C was 90.6%.

What about the viability, T/C [8] of the same molecule?
Its viability, T/C is 108%.

What about the viability, T/C [25] of the same molecule?
Its viability, T/C is 95.7%.

And the viability, T/C [26]?
Its viability, T/C is 104%.

What about the viability, T/C [27] of the same molecule?
The viability, T/C was 93.3%.

What about the viability, T/C [28] of the same molecule?
The viability, T/C was 42.9%.

What about the viability, T/C [9] of the same molecule?
The viability, T/C was 103%.

And the viability, T/C [10]?
Its viability, T/C is 105%.

What about the viability, T/C [29] of the same molecule?
Its viability, T/C is 119%.

What about the viability, T/C [30] of the same molecule?
Its viability, T/C is 113%.

And the viability, T/C [31]?
The viability, T/C was 94.4%.

And the viability, T/C [32]?
The viability, T/C was 40.5%.

What about the viability, T/C [11] of the same molecule?
Its viability, T/C is 118%.

What about the viability, T/C [12] of the same molecule?
The viability, T/C was 110%.

What about the viability, T/C [33] of the same molecule?
Its viability, T/C is 103%.

And the viability, T/C [34]?
The viability, T/C was 98.5%.

What about the viability, T/C [35] of the same molecule?
Its viability, T/C is 92.5%.

And the viability, T/C [36]?
Its viability, T/C is 48.5%.
